The results in this text go back to patent publication US8268856B2, “Method to use compositions having antidepressant anxiolytic and other neurological activity and compositions of matter” (priority 2007, dated 2012).

One assay concerns serotonin receptors. As to the kind of experiment: Affinity to serotonin receptors (receptor binding panel). Details: species or system human or rodent. How it is done: Evaluation of binding affinity of isolated compounds to serotonin receptors. In vitro testing of isolated compounds was completed using a small panel of receptor binding assays and then validated in a comprehensive panel by the NIMH Psychoactive Drug Screening Program. Pharmacological and functional screening of isolated molecules was performed on cloned human or rodent CNS receptors, channels, and transporters. Hu, J-F., et al. New Antiinfective and Human 5-HT2 Receptor Binding Natural and Semisynthetic Compounds from the Jamaican Sponge Smenospongia aurea. 65 Jour. of Nat. Prod. 476-80 (2002).
(§1) Porsolt R D, et al. Behavioral Despair In Mice: A Primary Screening Test for Antidepressants, 229 Arch. Int. Pharmacodyn. 327-36 (1977). […] In order to control for false positives, as has been previously observed with psychostimulants, Cryan, J., et al. Assessing Substrates Underlying The Behavioral Effects Of Antidepressants Using The Modified Rat Forced Swimming Test. 29 Neurosci Biobehav Rev. 547-69 (2005) locomotor activity of the animals was monitored using an automated photobeam activity monitoring system. Lucki. I. The Forced Swimming Test As A Model For Core And Component Behavioral Effects Of Antidepressant Drugs. 8 Behav. Pharmacol. 522-32 (1997).

Another assay concerns DBA2/J mice. The assay can be described thus: Locomotor activity test, DBA2/J mice. Type of assay: in vivo, mouse. The conditions noted are these: versus vehicle. On the procedure: (§2) Effect of select compounds on locomotor activity. Since reductions in immobility time is the primary criterion to assess antidepressant like activity in both the FST and TST, it is crucial to confirm that the effects observed in both tests are not attributed to specific stimulant action of the tested compounds, which would be reflected as enhancement of the locomotor activity. Accordingly, the effect of tested compounds on locomotor activity was evaluated using an automated activity monitoring system.
However, Tukey's post-hoc tests confirmed that there were no statistical differences between the vehicle controls, or compounds from their respective vehicle controls (FIG. 10A). […] In DBA2/J mice, the pattern of responding in the locomotor studies was similar to that observed in the Swiss Webster mice (FIG. 10B). […] It is thus evident that the drug/dose combinations that produced antidepressant-like effects in both the FST and TST were not associated with confounding stimulant effects effect of select compounds in chick anxiety/depression model: […]

Assay [1] deals with male Swiss Webster mice. The assay can be described thus: Locomotor activity test, Swiss Webster mice. It counts as in vivo, mouse. The conditions noted are these: IP, photobeam interruptions, versus vehicle. On the procedure:
(§3) Locomotor Activity and the FST. To evaluate the isolated compounds for antidepressant-like activity, male Swiss Webster mice (Harlan, Indianapolis, Ind.) (25-30 g weight) were used. Animals were housed in groups of five with a 12 h light/12 h dark cycle. Food and water were provided at libitum. All procedures involving animals were performed as approved by the Institutional Animal Care and Use Committee of the University of Mississippi. Animals were randomly divided into groups (n=6-10/group). Each group was injected IP with either the compound (1-20 mg/kg), desipramine (20 mg/kg), or vehicle (saline, 10% ethanol or 10% ethanol/1% DMSO). Following injection, locomotor activity was monitored using an automated activity monitoring system (San Diego Instruments, San Diego, Calif.). Each mouse was placed in a Plexiglas enclosure and locomotor activity was recorded as the number of photobeam interruptions for 30 min after drug injection. The activity for the last ten min was quantified and analyzed. Immediately at the end of the locomotor session, individual mice were subjected to the FST. The mice were individually placed in a clear plastic cylinder (23 cm high, 10 cm internal diameter) filled with deionized water (8 cm high) at 25° C. The mice were recorded with a video camera (positioned at about 30 cm above the cylinder) for a total of 6 min. The total period of immobility during the last 4 min was timed by three independent observers. The mean immobility time was then calculated. A mouse was judged to be immobile when it remained afloat, making only minimal movements to keep its head above water.
as §2

Assay [2] deals with male Swiss Webster mice. The assay can be described thus: Porsolt forced swim test (FST). It counts as in vivo, mouse. Conditions: male Swiss Webster mice, IP, immobility during last 4 min of 6 min swim, versus vehicle. On the procedure: as §3
For the FST, immobility times of the three independent rates were averaged for each mouse and data were analyzed using one way analysis of variance (ANOVA) followed by Bonferroni Multiple comparison posthoc tests to determine statistical differences from the corresponding vehicle control. Chick distress vocalization data were analyzed by two-way repeated measures ANOVA, one-way ANOVA and simple effects analyses with post-hoc comparisons conducted using Fisher's LSD test. p-Values less than 0.05 were considered statistically significant.
as §1

A further assay relates to Male DBA2/J mice. As to the kind of experiment: Mouse tail suspension test (TST). It counts as in vivo. The conditions noted are these: i.p., versus vehicle. An excerpt: Based on the data collected from the FST, the antidepressant action of aaptamine. 5,6-dibromo-N,N-dimethyltryptamine, and 3-bromotyramine was examined in the mouse tail suspension test (TST), another model highly predictive of antidepressant action. Similar to the FST, this test depends on the depressive behavior elicited by the animals when placed in an inescapable situation, in this case suspending the animal by its tail. Male DBA2/J mice were used for this test.
In fact, higher doses seem to increase immobility time (FIG. 9C). […] However, such effect was only evident at the 40 mg/kg dose (compared to 10 and 20 mg/kg dose in the FST) (FIG. 9D).

For assay [3], the system named is Mycobacterium tuberculosis. As to the kind of experiment: Activity against Mycobacterium tuberculosis.
In another assay the test system is HCV. As to the kind of experiment: Activity against HCV.
The next assay deals with HIV-1. As to the kind of experiment: Activity against HIV-1.

Turning to `NCCc1ccc(O)c(Br)c1` [216/218, 2-(3′-bromo-4′hydroxyphenol)-ethanamine], the “affinities to serotonin receptors” value with serotonin receptors was “moderate affinities”. Besides, the “effect on locomotor activity” value with DBA2/J mice and in the assay with male Swiss Webster mice [1] was “did not alter the locomotor activity” throughout. In the assay on male Swiss Webster mice [2], the “antidepressant-like activity / effect on immobility time in FST” value is listed as “dose dependent reduction in immobility”. The “antidepressant-like action / immobility in tail suspension test” value in the assay on Male DBA2/J mice was “significant antidepressant action”.

Turning to `Cc1nccc2c1C(C)(C)Nc1cc(Br)ccc1-2` [Veranamine, 8-bromo-4,5,5-trimethyl-5,6-dihydrobenzo[c][2,7]naphthyridine], the “affinities to serotonin receptors” value in the assay on serotonin receptors was “moderate affinities”. Besides, the “activity against Mycobacterium tuberculosis” value in assay [3] is “not active”. Moreover, in the assay on HCV, the “activity against HCV” value is reported as “not active”. Moreover, the “effect on locomotor activity” value in the assay with male Swiss Webster mice [1] was “not the consequence of its stimulant activity”. For the same compound, in the assay on male Swiss Webster mice [2], the “antidepressant-like activity / effect on immobility time in FST” value is listed as “potent antidepressant activity at the dose of 20 mg/kg”. The “activity against HIV-1” value in the assay on HIV-1 is reported as “not active”.
